Where two headings read alike, the source gives them in different places.
Key:
[1] = for Found C / Found R.E.: n = 3
Method: The following stability tests were evaluated: (1) stability of the stock solutions of the analytes; (2) freeze and thaw stability of the analytes in the plasma from −20°C to room temperature for three cycles; (3) short-term stability of the analytes in plasma at room temperature before extraction for 3 h and the ready-to-inject samples (after extraction, in the mobile phase) to the autosampler rack for 4 h; and (4) long-term stability of the analytes in matrix stored at −20°C for two months. All stability tests samples at three concentration levels (10, 60, and 600 ng/mL) were analyzed in triplicate and the deviations were determined in relation to freshly prepared samples.

[2] = Stability of stock solutions of NA and NUA; type: physicochemical
Method: Two separate stock solutions of the analytes were prepared at 1 mg/mL in methanol-water (50 : 50, v/v) and stored at −20°C. A series of standard working solutions for NA and NUA were prepared by diluting stock solution with methanol-water (50 : 50, v/v). The 5-FU solution was brought to a final concentration of 1000 ng/mL in acetonitrile from 1 mg/mL in acetonitrile. All working solutions were stored at 4°C and brought to room temperature before use. Calibration standards and quality control samples were prepared by spiking 50 μL of the working solutions and 50 μL of IS into 100 μL of drug-free human plasma. Matrix-matched NA and NUA calibration standards were prepared in plasma at concentrations of 5, 10, 20, 60, 200, 600, and 800 ng/mL, respectively. Similarly, NA and NUA quality control (QC) samples were prepared separately in plasma to give concentrations of 10, 60, and 600 ng/mL.

[3] = Pharmacokinetics of NA and NUA in plasma after single oral doses of Niacin extended-release/Simvastatin tablets in healthy Chinese volunteers; type: in vivo; conditions: for CLz/F: human plasma; for AUC(0-t) / AUC(0-inf) / Tmax / half-life / Cmax / k el / MRT last / Vd/F: both sexes, human, in vivo, po; for k el: n = 12, read-out: K e (converted); for MRT last: n = 12, read-out: MRT0–t; for Vd/F: n = 12, read-out: V z/F
Method: Extraction of NA and NUA was carried out by protein precipitation. First, 50 μL of the IS working solution (1000 ng/mL 5-FU) and 50 μL of water were added to a 100 μL aliquot of human plasma. The sample mixture was then deproteinized with 250 μL of acetonitrile, and the precipitate was removed by centrifugation at 15000 rpm for 10 min. The supernatant was transferred to another tube and evaporated under a gentle stream of nitrogen at 40°C until it is dry. The residue was reconstituted in 150 μL mobile phase and vortex-mixed for 30 sec. An aliquot of 40 μL of the solution was injected into the LC-MS/MS system for analysis.
Before conducting the study all subjects provided written informed consent to participate. The study was designed as randomized, open-label, crossover, and single dose periods with a 7-day washout between each treatment. A total of 12 healthy Chinese volunteers (6 males and 6 females) aged 20 to 35 years with a body mass index between 19 and 24 kg/m^2 were recruited. Subjects were randomized into three groups (2 males and 2 females for each treatment). They were orally dosed with Niacin extended-release/Simvastatin 1, 2, and 3 tablets once daily, separately. The venous blood samples were collected at time intervals (0, 0.33, 0.66, 1.0, 1.5, 2.0, 2.5, 3.0, 3.5, 4.0, 5.0, 6.0, 8.0, 12, and 24 h) in separate vacutainers during the treatment. All blood samples were centrifuged at 3000 ×g for 10 min and the plasma was separated and kept frozen at −20°C until analysis.
The pharmacokinetic parameters were calculated with data analysis system (DAS) program (version 2.0, Mathematical Pharmacology Professional Committee, Shanghai, China). The maximum plasma concentration (C max) and the corresponding time (T max) were obtained from observed data. The terminal elimination rate constant (K e) was estimated with least-squares regression of values in the terminal log-linear region of plasma concentration-time curves, and the terminal elimination half-life (t 1/2) was calculated to be 0.693/K e. The area under the curve from time zero to the last sampling time (AUC0−t) was determined using the linear trapezoidal rule.

[4] = extracted plasma sample in mobile phase, autosampler for 4 h (24°C), added 10.0 ng/mL
[5] = extracted plasma sample in mobile phase, autosampler for 4 h (24°C), added 60.0 ng/mL
[6] = extracted plasma sample in mobile phase, autosampler for 4 h (24°C), added 600.0 ng/mL
[7] = human plasma, long-term (2 months at −20°C), added 10.0 ng/mL
[8] = human plasma, long-term (2 months at −20°C), added 60.0 ng/mL
[9] = human plasma, long-term (2 months at −20°C), added 600.0 ng/mL
[10] = human plasma, short-term (3 h at 24°C), added 10.0 ng/mL
[11] = human plasma, short-term (3 h at 24°C), added 60.0 ng/mL
[12] = human plasma, short-term (3 h at 24°C), added 600.0 ng/mL
[13] = human plasma, three freeze/thaw cycles, added 10.0 ng/mL
[14] = human plasma, three freeze/thaw cycles, added 60.0 ng/mL
[15] = human plasma, three freeze/thaw cycles, added 600.0 ng/mL
[16] = 1 tablet (500 mg/10 mg), mean ± S.D., n = 12
[17] = 2 tablets (1000 mg/20 mg), mean ± S.D., n = 12
[18] = 3 tablets (1500 mg/30 mg), mean ± S.D., n = 12
[19] = 1 tablet (500 mg/10 mg), mean ± S.D.
[20] = 2 tablets (1000 mg/20 mg), mean ± S.D.
[21] = 3 tablets (1500 mg/30 mg), mean ± S.D.

With `O=C(O)CNC(=O)c1cccnc1` [NUA, nicotinuric acid] the “Found C” value [1, 4] was 10.7 ng/mL, the “Found R.E.” value [1, 4] was 7.3% and the “Found C” value [1, 5] was 67.0 ng/mL. The “Found R.E.” value [1, 5] was 11.7%, the “Found C” value [1, 6] was 598.3 ng/mL and the “Found R.E.” value [1, 6] was −0.3%. The “Found C” value [1, 7] was 10.6 ng/mL, the “Found R.E.” value [1, 7] was 6.4% and the “Found C” value [1, 8] was 59.1 ng/mL. The “Found R.E.” value [1, 8] was −1.5%, the “Found C” value [1, 9] was 579.3 ng/mL and the “Found R.E.” value [1, 9] was −3.4%. For the same compound, the “Found C” value [1, 10] was 11.0 ng/mL, the “Found R.E.” value [1, 10] was 9.7% and the “Found C” value [1, 11] was 63.6 ng/mL. The “Found R.E.” value [1, 11] was 5.9%, the “Found C” value [1, 12] was 628.7 ng/mL and the “Found R.E.” value [1, 12] was 4.8%. For the same compound, the “Found C” value [1, 13] was 10.8 ng/mL, the “Found R.E.” value [1, 13] was 8.3% and the “Found C” value [1, 14] was 63.3 ng/mL. For the same compound, the “Found R.E.” value [1, 14] was 5.6%, the “Found C” value [1, 15] was 618.3 ng/mL and the “Found R.E.” value [1, 15] was 3.1%. For the same compound, the “stability in human plasma” value ([1]; variety of storage and process conditions (Tables 2 and 3)) was “did not reveal any significant degradation”, the “R.E.% of response, stock solution stability” value ([2]; seven days at −20°C versus before) was −1.6% and the “R.E.% of response, stock solution stability” value ([2]; six h at room temperature versus before) was 0.8%. It also gave a CLz/F [3, 16] of 287.8 ± 128.2 L/h, a CLz/F [3, 17] of 224.8 ± 91.90 L/h and a CLz/F [3, 18] of 189.3 ± 94.20 L/h. The AUC(0-t) ([3]; 1 tablet) was 2150 ± 1360 ng·h/mL, the AUC(0-inf) [3, 16] was 2180 ± 1370 ng·h/mL and the AUC(0-t) [3, 16] was 2150 ± 1360 ng·h/mL. The Tmax [3, 16] was 2.06 ± 1.6 h, the half-life [3, 16] was 102 ± 48.1 min and the Cmax ([3]; 1 tablet (500 mg/10 mg), mean ± S.D., n = 12, read-out: C max) was 836 ± 399 ng/mL. The k el [3, 19] was 0.000147 s⁻¹, the MRT last [3, 19] was 2.91 ± 0.74 h and the Vd/F [3, 19] was 649 ± 338 L. For the same compound, the Cmax ([3]; 1 tablet, read-out: mean maximum plasma concentration (C max)) was 836 ± 399 ng/mL, the AUC(0-t) ([3]; 2 tablets) was 5400 ± 3220 ng·h/mL and the AUC(0-inf) [3, 17] was 5480 ± 3250 ng·h/mL. For the same compound, the AUC(0-t) [3, 17] was 5400 ± 3220 ng·h/mL, the Tmax [3, 17] was 3.03 ± 2.19 h and the half-life [3, 17] was 153 ± 75.6 min. The Cmax ([3]; 2 tablets (1000 mg/20 mg), mean ± S.D., n = 12, read-out: C max) was 1630 ± 636 ng/mL, the k el [3, 20] was 9.17e-05 s⁻¹ and the MRT last [3, 20] was 3.6 ± 1.32 h. For the same compound, the Vd/F [3, 20] was 821 ± 523 L, the Cmax ([3]; 2 tablets, read-out: C max) was 1630 ± 636 ng/mL and the AUC(0-t) ([3]; 3 tablets) was 10200 ± 7080 ng·h/mL. It also gave an AUC(0-inf) [3, 18] of 10200 ± 7090 ng·h/mL, an AUC(0-t) [3, 18] of 10200 ± 7080 ng·h/mL and a Tmax [3, 18] of 2.33 ± 1.05 h. The half-life [3, 18] was 163 ± 110 min, the Cmax ([3]; 3 tablets (1500 mg/30 mg), mean ± S.D., n = 12, read-out: C max) was 2790 ± 1040 ng/mL and the k el [3, 21] was 9.17e-05 s⁻¹. It also gave an MRT last [3, 21] of 3.79 ± 1.11 h, a Vd/F [3, 21] of 696 ± 458 L and a Cmax ([3]; 3 tablets, read-out: C max) of 2790 ± 1040 ng/mL.

Reference: article PMC4541002, “Quantification of Niacin and Its Metabolite Nicotinuric Acid in Human Plasma by LC-MS/MS: Application to a Clinical Trial of a Fixed Dose Combination Tablet of Niacin Extended-Release/Simvastatin (500 mg/10 mg) in Healthy Chinese Volunteers” (International Journal of Analytical Chemistry, 2015)
